Reference: ChEMBL document CHEMBL1152803, “Synthesis and vasodilator effects of rutaecarpine analogues which might be involved transient receptor potential vanilloid subfamily, member 1 (TRPV1)” (Bioorg Med Chem, 2009)
The source made the active and inactive calls. No cut-off for these calls is given here.

test system: Aorta; assay: Vasodilative activity against […] Sprague-Dawley rat thoracic aorta assessed as reduction in phenylepinephrine-induced contraction; assay type: functional, tissue-based; settings: not given

Point of comparison: `O=c1c2cc(Cl)ccc2nc2n1CCc1c-2[nH]c2ccccc12`, EC50 32.3 µM. Against it:
- COc1ccc2[nH]c3c(c2c1)CCn1c-3nc2ccc(Cl)cc2c1=O — 15-fold lower, 2.11 µM
- O=c1c2c(Cl)cccc2nc2n1CCc1c-2[nH]c2ccccc12 — 1.9-fold lower, 16.8 µM
- c1ccc2c(c1)CN1CCc3c([nH]c4ccccc34)C1=N2 [RUTAECARPENE] — within 1.5-fold, 25.1 µM
- O=C1c2ccccc2NC2(C(F)(F)F)c3[nH]c4ccccc4c3CCN12 (stereo not given) — 4.1-fold lower, 7.86 µM
- O=c1c2ccccc2nc2n1CCc1c-2[nH]c2ccccc12 [RUTAECARPINE] — 24-fold lower, 1.33 µM
- COc1ccc2[nH]c3c(c2c1)CCN1C(=O)c2ccccc2OC31C (stereo not given) — 29-fold higher, 934 µM
- COc1ccc2[nH]c3c(c2c1)CCn1c-3c(O)c2ccccc2c1=O — 180-fold higher, 5700 µM
- O=c1c2ccccc2nc2n1CCc1c-2[nH]c2c(Cl)cccc12 — 13-fold lower, 2.44 µM
- COc1ccc2[nH]c3c(c2c1)CCN1C(=O)c2ccccc2OC31 (stereo not given) — 2000-fold higher, 63600 µM
- COc1ccc2[nH]c3c(c2c1)CCn1c-3nc2cc(Cl)ccc2c1=O — within 1.5-fold, 22.5 µM
- c1ccc2c(c1)CN1CCc3c([nH]c4ccccc34)C1N2 (stereo not given) [RUTAECARPANE] — 1.6-fold lower, 20.1 µM
- Cc1ccc2[nH]c3c(c2c1)CCn1c-3nc2ccccc2c1=O — 26-fold lower, 1.24 µM
- COc1ccc2[nH]c3c(c2c1)CCn1c-3nc2ccc(Br)cc2c1=O — 3.4-fold lower, 9.4 µM
- Cc1cccc2c3c([nH]c12)-c1nc2ccccc2c(=O)n1CC3 — 11-fold lower, 2.99 µM
- O=c1c2ccccc2c(O)c2n1CCc1c-2[nH]c2ccccc12 — 480-fold higher, 15400 µM
- CC(=O)c1ccc2[nH]c3c(c2c1)CCn1c-3nc2ccccc2c1=O — 9.9-fold lower, 3.25 µM
- O=c1c2ccccc2nc2n1CCc1c-2[nH]c2c(Cl)cc(Cl)c(Cl)c12 — 14-fold lower, 2.31 µM
- COc1ccc2[nH]c3c(c2c1)CCn1c-3nc2ccccc2c1=O — 1.7-fold higher, 55.1 µM
- O=c1c2ccc(Cl)cc2nc2n1CCc1c-2[nH]c2ccccc12 — 1.5-fold lower, 21.1 µM
- COC(=O)C(Cc1c[nH]c2ccccc12)n1cnc2ccccc2c1=O (stereo not given) — 170-fold higher, 5460 µM
- CC12Oc3ccccc3C(=O)N1CCc1c2[nH]c2ccccc12 (stereo not given) — 49-fold higher, 1590 µM
- COc1ccc2[nH]c3c(c2c1)CCn1c-3nc2cccc(Cl)c2c1=O — 1.6-fold lower, 19.7 µM
- O=C1c2ccccc2OC2c3[nH]c4ccccc4c3CCN12 (stereo not given) — 6.8-fold higher, 220 µM

Point of comparison: `COc1ccc2[nH]c3c(c2c1)CCn1c-3nc2cc(Cl)ccc2c1=O`, Emax 33.9%. Against it:
- COc1ccc2[nH]c3c(c2c1)CCn1c-3nc2ccc(Cl)cc2c1=O — higher, 55.2%
- O=c1c2c(Cl)cccc2nc2n1CCc1c-2[nH]c2ccccc12 — higher, 39.6%
- c1ccc2c(c1)CN1CCc3c([nH]c4ccccc34)C1=N2 [RUTAECARPENE] — higher, 68.9%
- O=C1c2ccccc2NC2(C(F)(F)F)c3[nH]c4ccccc4c3CCN12 (stereo not given) — higher, 42.5%
- O=c1c2ccccc2nc2n1CCc1c-2[nH]c2ccccc12 [RUTAECARPINE] — higher, 79.3%
- COc1ccc2[nH]c3c(c2c1)CCN1C(=O)c2ccccc2OC31C (stereo not given) — lower, 31.6%
- COc1ccc2[nH]c3c(c2c1)CCn1c-3c(O)c2ccccc2c1=O — lower, 13.2%
- O=c1c2ccccc2nc2n1CCc1c-2[nH]c2c(Cl)cccc12 — higher, 50.1%
- COc1ccc2[nH]c3c(c2c1)CCN1C(=O)c2ccccc2OC31 (stereo not given) — lower, 13%
- c1ccc2c(c1)CN1CCc3c([nH]c4ccccc34)C1N2 (stereo not given) [RUTAECARPANE] — higher, 63.6%
- Cc1ccc2[nH]c3c(c2c1)CCn1c-3nc2ccccc2c1=O — higher, 85.1%
- COc1ccc2[nH]c3c(c2c1)CCn1c-3nc2ccc(Br)cc2c1=O — higher, 40.3%
- Cc1cccc2c3c([nH]c12)-c1nc2ccccc2c(=O)n1CC3 — higher, 47%
- O=c1c2ccccc2c(O)c2n1CCc1c-2[nH]c2ccccc12 — lower, 14.1%
- CC(=O)c1ccc2[nH]c3c(c2c1)CCn1c-3nc2ccccc2c1=O — higher, 68.2%
- O=c1c2ccccc2nc2n1CCc1c-2[nH]c2c(Cl)cc(Cl)c(Cl)c12 — higher, 51%
- COc1ccc2[nH]c3c(c2c1)CCn1c-3nc2ccccc2c1=O — higher, 42.6%
- O=c1c2ccc(Cl)cc2nc2n1CCc1c-2[nH]c2ccccc12 — higher, 36.6%
- COC(=O)C(Cc1c[nH]c2ccccc12)n1cnc2ccccc2c1=O (stereo not given) — lower, 15.5%
- CC12Oc3ccccc3C(=O)N1CCc1c2[nH]c2ccccc12 (stereo not given) — lower, 29.9%
- COc1ccc2[nH]c3c(c2c1)CCn1c-3nc2cccc(Cl)c2c1=O — higher, 37.1%
- O=C1c2ccccc2OC2c3[nH]c4ccccc4c3CCN12 (stereo not given) — higher, 39.8%
- O=c1c2cc(Cl)ccc2nc2n1CCc1c-2[nH]c2ccccc12 — higher, 40.6%

test system: Rattus norvegicus; assay: Antihypertensive activity against phenol-induced hypertension in iv dosed Sprague-Dawley rat assessed as decrease in mean arterial blood pressure; assay type: functional, organism-based; settings: Artery

In the case of `Cc1ccc2[nH]c3c(c2c1)CCn1c-3nc2ccccc2c1=O`, the Activity is reported as “Dose-dependent effect”.

test system: Rattus norvegicus; assay: Antihypertensive activity against phenol-induced hypertension in Sprague-Dawley rat assessed as decrease in mean arterial pressure at 300 µg/kg, iv in presence of capsaicin administered 4 days before compound administration; settings: Artery

`Cc1ccc2[nH]c3c(c2c1)CCn1c-3nc2ccccc2c1=O` was tested, and the Activity was “inactive”.
